Values quoted from earlier work, collected in patent US20080153832A1, “PAN-ALPHA-2 RECEPTOR AGONIST AND RELAXANT COMPOSITIONS FOR TREATING GASTROINTESTINAL MOTILITY DISORDERS” (Allergan, Inc., priority 2006, published 2008).

- time to maximum serum concentration: about 1 hour
SMILES: CN(C)[C@@H](CCOc1cccc2ccccc12)c1ccccc1 [Dapoxetine]
